Data: patent publication US20250320215A1, “SALTS OF N-[4-(4-[[2-(DIMETHYLAMINO)ETHYL]AMINO]-3-METHYL-1H-PYRAZOLO[3,4-D]PYRIMIDIN-6-YL)-2-FLUOROPHENYL]-2,5-DIFLUOROBENZENESULFONAMIDE AND CRYSTALLINE FORMS THEREOF” (THRYV THERAPEUTICS INC, priority 2022, published 2025)
In brackets after ≈: the same amount, converted by molar mass.

How the values were obtained:
Assay type in all cases: physicochemical
[1] = pKa values and protonation state of Compound 1
[2] = Solubility estimates by aliquot addition method in various solvents; conditions: thermodynamic from solid
Experimental: Solubility estimates were conducted using an aliquot addition method in a variety of solvents at ambient temperature.
Samples with solvents with poor solubility were heated at 50° C.

[3] = Solubility of the salts in water / MTBE
Experimental: Solubility in water is >25 mg/mL.

[4] = Dynamic vapor sorption/desorption (DVS) with post-DVS XRPD; conditions: for Post-DVS XRPD: XRPD after DVS versus before; for Reversibility (DVS): sorption/desorption
Experimental: Moisture sorption/desorption data were collected on a DVS Intrinsic. 7-20 mg of a sample was placed into a tared sample chamber and automatically weighed. The anhydrates were analyzed with the following setting parameters:
DVS experiments (FIGS. 17, 19, 21, 34, 35, 48 and 50) and XRPD post-DVS experiments (FIGS. 18, 20, 22, 36, 49 and 51) were conducted in order to study the deliquescence behaviour of the crystalline salts upon expose to humidity.

[5] = Water activity study (competition of forms, XRPD); conditions: room temperature
Experimental: Water activity study was performed using Compound 3 Form B (anhydrate) as the input material in EtOH/Water with different water content at RT. About 5 mg of Compound 3, Form B was used to prepare saturated solutions and the solutions were filtered by syringe at RT. 5 mg of Compound 3, Form D were added in the 1 mL of filtrate, and the suspension was slurried at RT for 3 and 7 days. The solids collected after filtration were analyzed by XRPD.
Protocol: excess amount of Compound 4 Form B was used to prepare saturated solutions. 6-8 mg each of Compound 4 Form B and Form D were added in the solutions. The suspension was slurried at room temperature for the corresponding times. Residual solids were collected by filtration with syringe filter, and characterized by XRPD.

[6] = Solid stability testing (HPLC purity and XRPD); conditions: for Solid stability: 60° C. (capped/close) and 40° C./75% RH (open) for 7 days; for Purity, Initial T0 / Purity - 7 days, 60° C. / Purity - 7 days, 40° C./75% RH: HPLC; for Purity, Initial T0 / XRPD, Initial T0: before storage; for Purity - 7 days, 60° C. / XRPD - 7 days, 60° C.: capped/closed vial; for Purity - 7 days, 40° C./75% RH / XRPD - 7 days, 40° C./75% RH: open
Experimental: HPLC analysis were performed with an Agilent HPLC 1260 series instrument. HPLC method for stability testing is as follows:
Solid stability testing of Compound 3, Form D was evaluated at the conditions of 60° C. (capped) and 40° C./75% RH (open) for 7 days. Polymorphic form and purity were analyzed by XRPD and HPLC, respectively. […] (capped) and 40° C./75% RH (open) for 7 days.
Solid stability testing of Compound 4 Form B and Form D were evaluated at the conditions of 60° C. (vial close) and 40° C./75% RH (vial open) for 7 days. Polymorphic form and purity were checked by XRPD and HPLC, respectively.

[7] = Comparative study (interconversion and water activity) between crystalline forms; conditions: Compound 3: Forms B, C, D, E, non-aqueous and aqueous systems; Compound 4: Forms B to G
Experimental: (capped) and 40° C. with 75% relative humidity (open).
Form D is stable at high water activity (0.16≤aW≤0.90). Solid stability study indicated Form D was physically and chemically stable at 60° C. (close) and 40° C. at 75% RH for 7 days.

[8] = Thermal treatment (heat-cool cycle by DSC, XRPD of resulting solids)
Experimental: Compound 3, Form E was treated with heat-cool cycle by DSC. The resulted solids were characterized by XRPD. Compound 3, Form E, was converted to Compound 3, Form D after desolvation.
Compound 4 Form B was treated with heat-cool cycle by DSC. The resulted solids were checked by XRPD. […] The water was excluded at elevated temperature, then entered in the crystal lattice again at room temperature.
Compound 4 Form C and trace Form B was treated with heat-cool cycle by DSC. The resulted solids were checked by XRPD. The sample was converted to low crystalline (LC) Form B after heating to 175° C.
Compound 4 Form D was treated with heat-cool cycle by DSC. The resulted solids were checked by XRPD. The sample kept unchanged after heating to 140° C., but was converted to a new low crystalline form after heating to 210° C. which was assigned to Form F.

[9] = Drying, physical stability of the form
Experimental: After being subjected to drying in a vacuum oven for 1 day at 62-72° C., Form A was characterized by XRPD (FIG. 22: pre-DVS) and proton NMR (FIG. 15).
Form E was obtained by slow cooling crystallization in NMP (FIG. 43). The unstable form has not been characterized further. A clear solution of Compound 4, Form B was dissolved (30 mg) in NMP at 50° C. and cooled from 50° C. to 2° C.

Cc1n[nH]c2nc(-c3ccc(NS(=O)(=O)c4cc(F)ccc4F)c(F)c3)nc(NCCN(C)C)c12 [Compound 1, N-[4-(4-[[2-(dimethylamino)ethyl]amino]-3-methyl-1H-pyrazolo[3,4-d]pyrimidin-6-yl)-2-fluorophenyl]-2,5-difluorobenzenesulfonamide]
pKa ([1]; first of four pKa values): 2.7
pKa ([1]; fourth of four pKa values): 11.8
Charge (dominant protonation state) ([1]; pH 5.81-8.85): Neutral (Zwitterion)
pKa ([1]; second of four pKa values): 5.81
pKa ([1]; third of four pKa values): 8.85
solubility ([2]; ACN, 50 °C, organic solvent or mixture, read-out: Solubility at 50° C.): < 1000 µg/mL
solubility ([2]; ACN, organic solvent or mixture, read-out: Solubility at RT): < 1000 µg/mL
solubility ([2]; DCM, 50 °C, organic solvent or mixture, read-out: Solubility at 50° C.): < 1000 µg/mL
solubility ([2]; DCM, organic solvent or mixture, read-out: Solubility at RT): < 1000 µg/mL
solubility ([2]; DMF, organic solvent or mixture, read-out: Solubility at RT): 33000 µg/mL (≈ 65.3 mM)
solubility ([2]; DMSO, organic solvent or mixture, read-out: Solubility at RT): 41000 µg/mL (≈ 81.1 mM)
solubility ([2]; EtOAc, 50 °C, organic solvent or mixture, read-out: Solubility at 50° C.): < 3000 µg/mL
solubility ([2]; EtOAc, organic solvent or mixture, read-out: Solubility at RT): < 3000 µg/mL
solubility ([2]; EtOH, 50 °C, organic solvent or mixture, read-out: Solubility at 50° C.): < 2000 µg/mL
solubility ([2]; EtOH, organic solvent or mixture, read-out: Solubility at RT): < 2000 µg/mL
solubility ([2]; IPA, 50 °C, organic solvent or mixture, read-out: Solubility at 50° C.): < 2000 µg/mL
solubility ([2]; IPA, organic solvent or mixture, read-out: Solubility at RT): < 2000 µg/mL
solubility ([2]; MTBE, 50 °C, organic solvent or mixture, read-out: Solubility at 50° C.): < 2000 µg/mL
solubility ([2]; MTBE, organic solvent or mixture, read-out: Solubility at RT): < 2000 µg/mL
solubility ([2]; MeOH, 50 °C, organic solvent or mixture, read-out: Solubility at 50° C.): > 1000 µg/mL
solubility ([2]; MeOH, organic solvent or mixture, read-out: Solubility at RT): < 1000 µg/mL
solubility ([2]; THF, 50 °C, organic solvent or mixture, read-out: Solubility at 50° C.): > 1000 µg/mL
solubility ([2]; THF, organic solvent or mixture, read-out: Solubility at RT): < 1000 µg/mL
solubility ([2]; acetone, 50 °C, organic solvent or mixture, read-out: Solubility at 50° C.): < 1000 µg/mL
solubility ([2]; acetone, organic solvent or mixture, read-out: Solubility at RT): < 1000 µg/mL
solubility ([2]; water, 50 °C, water, read-out: Solubility at 50° C.): < 2000 µg/mL
solubility ([2]; water, read-out: Solubility at RT): < 2000 µg/mL

Cc1n[nH]c2nc(-c3ccc(NS(=O)(=O)c4cc(F)ccc4F)c(F)c3)nc(NCCN(C)C)c12 [Compound 2]
Solubility in water ([3]; water): < 1000 µg/mL
Post-DVS XRPD [4]: No change
wt % gain (DVS) ([4]; from 5 to 95% RH): 0.4 wt %

Cc1n[nH]c2nc(-c3ccc(NS(=O)(=O)c4cc(F)ccc4F)c(F)c3)nc(NCCN(C)C)c12.Cl [Compound 3 Form A]
solubility at 1 day ([3]; water, thermodynamic from solid): < 1000 µg/mL
Post-DVS XRPD [4]: No change
wt % gain (DVS) ([4]; from 5 to 96% RH): 2.1 wt %

Cc1n[nH]c2nc(-c3ccc(NS(=O)(=O)c4cc(F)ccc4F)c(F)c3)nc(NCCN(C)C)c12.Cl [Compound 3 Form D]
hygroscopicity [4]: slightly hygroscopic
wt % gain (DVS) ([4]; first value of '1.5 wt % and 1.7 wt % gain from 80 to 90% RH'): 1.5 wt %
Reversibility (DVS) [4]: Minor hysteresis
water activity (aw) at which the form is stable / the most stable form [5]: lower than 0.6
Solid stability [6]: chemically and physically stable
Purity, Initial T0 [6]: 99.19%
Purity - 7 days, 60° C. [6]: 99.24%
Purity - 7 days, 40° C./75% RH [6]: 99.30%
XRPD, Initial T0 [6]: Form D
XRPD - 7 days, 60° C. [6]: Form D
XRPD - 7 days, 40° C./75% RH [6]: Form D
relative stability among the crystalline forms [7]: most stable form

Cc1n[nH]c2nc(-c3ccc(NS(=O)(=O)c4cc(F)ccc4F)c(F)c3)nc(NCCN(C)C)c12.Cl [Compound 3 Form E]
XRPD Resulting Form ([8]; Heated to 114° C. at 10° C./min, and cooled to 25° C. at 5° C./min): Form E
XRPD Resulting Form ([8]; Heated to 160° C. at 10° C./min, and cooled to 25° C. at 5° C./min): Form D

Cc1n[nH]c2nc(-c3ccc(NS(=O)(=O)c4cc(F)ccc4F)c(F)c3)nc(NCCN(C)C)c12 [Compound 4 Form A]
solubility ([3]; MTBE, organic solvent or mixture, thermodynamic from solid, MTBE at RT): < 2000 µg/mL
Solubility in water ([3]; water): > 25000 µg/mL
Comments: hygroscopicity (DVS) [4]: Hygroscopic
hygroscopicity [4]: hygroscopic
Post-DVS XRPD [4]: No change
wt % gain (DVS) ([4]; from 5 to 75% RH): 1.3 wt %
wt % gain (DVS) ([4]; from 75 to 96% RH): 3.2 wt %
Reversibility (DVS) [4]: Reversible
physical stability on drying ([9]; vacuum oven for a day at 62-72° C.): retain its crystalline form

Cc1n[nH]c2nc(-c3ccc(NS(=O)(=O)c4cc(F)ccc4F)c(F)c3)nc(NCCN(C)C)c12 [Compound 4 Form C + trace Form B]
XRPD Resulting Form ([8]; Heated to 175° C. at 10° C./min, and cooled to 25° C. at 5° C./min): Form B (LC)

Cc1n[nH]c2nc(-c3ccc(NS(=O)(=O)c4cc(F)ccc4F)c(F)c3)nc(NCCN(C)C)c12 [Compound 4 Form D]
hygroscopicity [4]: slightly hygroscopic
Post-DVS XRPD [4]: No change
wt % gain (DVS) ([4]; at 80% RH (25° C.)): 0.99 wt %
water uptake (DVS) ([4]; at 80% RH, 25° C.): 0.99%
Solid stability [6]: chemically and physically stable
Purity, Initial T0 [6]: 99.29%
Purity - 7 days, 60° C. [6]: 99.17%
Purity - 7 days, 40° C./75% RH [6]: 99.29%
XRPD, Initial T0 [6]: Form D
XRPD - 7 days, 60° C. [6]: Form D
XRPD - 7 days, 40° C./75% RH [6]: Form D
XRPD Resulting Form ([8]; Heated to 140° C. at 10° C./min, and cooled to 25° C. at 5° C./min): Form D
XRPD Resulting Form ([8]; Heated to 210° C. at 10° C./min, and cooled to 25° C. at 5° C./min): Form F
relative stability among the crystalline forms [7]: most stable form

Cc1n[nH]c2nc(-c3ccc(NS(=O)(=O)c4cc(F)ccc4F)c(F)c3)nc(NCCN(C)C)c12 [Compound 4 Form E]
form conversion after drying ([9]; obtained by cooling in NMP from 50° C. to 2° C.): converted to Form D
